Reference: patent US20260144252A1, “BROMINE- OR IODINE-PARA-SUBSTITUTED [(1,5-DIPHENYL-1H-1,2,4-TRIAZOL-3-YL)OXY]ACETIC ACID DERIVATIVES AND THEIR SALTS, AGENTS FOR PROTECTING USEFUL PLANTS OR CROP PLANTS COMPRISING THEM, METHODS FOR PRODUCING THEM AND THEIR USE AS SAFENERS” (Bayer Aktiengesellschaft, priority 2022, published 2026)

Columns and labels:
Assay type in all cases: in vivo
[1] = system: summer wheat (TRZAS, cv. Triso); assay: Reduction of damage by mesosulfuron-methyl on summer wheat (greenhouse, post-emergence safener test); parameters: key: 0: no reduction in damage (appearance corresponding to the herbicide control); 1: slight reduction in damage; 2: distinct reduction in damage; 3: significant reduction in damage; 4: complete reduction in damage (appearance corresponding to the untreated control); conditions: mesosulfuron-methyl 40 g/ha, visual, 12-13 days after application
Method: (§1) The seeds of the crop plants to be treated were laid out in soil in plastic pots (diameter ˜4 cm), covered with soil and grown in a greenhouse under good conditions for germination and growth. The trial plants were treated at the early leaf stage (BBCH10-BBCH12). In the course of this, the inventive compounds of the general formula (I) formulated in the form of wettable powders (WP) were sprayed onto the above-ground parts of the plants as an aqueous suspension with a water application rate corresponding to 800 l/ha with addition of wetting agent (Mero, 0.2%) in the specified dose. This was followed by the application of the herbicide. For this purpose, mesosulfuron-methyl, formulated in the form of water-dispersible granules (WG), was sprayed onto the above-ground parts of the plants in the form of an aqueous dispersion with a water application rate corresponding to 800 l/ha with addition of wetting agent (Biopower, 1 l/ha) in a dose of 40 g/ha. The dose of the herbicide was chosen here such that it causes average, visually clearly apparent damage (50-60%) compared to untreated crop plants at the evaluation time on a control group of crop plants without safener treatment that were included in the same trial. After application, the plants were cultivated under good growth conditions in a greenhouse. 12-13 days after application, the efficacy of the test compounds was assessed visually. For this purpose, the appearance of the plants treated with the test compound and herbicide was compared to the corresponding herbicide controls (without safener; with clearly visible damage) and the untreated controls (without damage). The damage-reducing effect of the test compounds was expressed here separately for 2 repeats in graded efficacy codes according to the following scheme: • 0: no reduction in damage (appearance corresponding to the herbicide control) • 1: slight reduction in damage • 2: distinct reduction in damage • 3: significant reduction in damage • 4: complete reduction in damage (appearance corresponding to the untreated control)

[2] = system: summer barley (HORVS, cv. Quench); assay: Reduction of damage by mesosulfuron-methyl on summer barley (greenhouse, post-emergence safener test); parameters: key: 0: no reduction in damage (appearance corresponding to the herbicide control); 1: slight reduction in damage; 2: distinct reduction in damage; 3: significant reduction in damage; 4: complete reduction in damage (appearance corresponding to the untreated control); conditions: safener 100 g/ha, mesosulfuron-methyl 40 g/ha, visual, 12-13 days after application
Method: as §1

[3] = system: durum wheat (TRZDU; cv. Joyau); assay: Comparative herbicide/safener combination test, damage by mesosulfuron-methyl + iodosulfuron-methyl-sodium; conditions: safener 20 g a.i./ha, damage without safener 20%
Method: (§2) The seeds of the crop plants to be treated were laid out in soil in wood fiber pots (diameter ˜7 cm), covered with soil and grown in a greenhouse under good conditions for germination and growth. The trial plants were treated at the early leaf stage (BBCH11-12). For this purpose, the herbicides and safeners used were formulated as wettable powders (WP), mixed in accordance with the dose specified in each case, and sprayed onto the above-ground parts of the plants as an aqueous suspension at a water application rate corresponding to 300 l/ha with addition of wetting agent (Biopower, 0.2%). The herbicidal effects were created using a mixture of mesosulfuron-methyl (40 g a.i./ha) and iodosulfuron-methyl-sodium (8 g a.i./ha). The total herbicide dose was chosen here such that it causes average, visually clearly apparent damage (min. 20%, max. 60%) compared to untreated crop plants at the evaluation time on a control group of crop plants without safener treatment that were included in the same trial. After application, the plants were cultivated under good growth conditions in a greenhouse. 20 days after application, the herbicide damage was assessed visually. The damage was assessed visually on a scale of 0-100% by comparison with untreated control plants, and averaged over 2 repeats per treatment.

[4] = system: summer barley (HORVS; cv. Quench); assay: as above; conditions: safener 20 g a.i./ha, damage without safener 50%
Method: as §2

[5] = system: winter barley (HORVW; cv. Zzoom); assay: as above; conditions: safener 20 g a.i./ha, damage without safener 55%
Method: as §2

[6] = mesosulfuron-methyl 40 + iodosulfuron-methyl-sodium 8 g a.i./ha, 20 days after application

| SMILES | Efficacy of the safener [Efficacy Code] ([1]; safener 100 g/ha) | Efficacy of the safener [Efficacy Code] ([1]; safener 500 g/ha) | Efficacy of the safener [Efficacy Code] [2] | Reduction in damage by safener (difference) [3] | Reduction in damage by safener (in %) [3] | Damage to crop plant by herbicide treatment WITH SAFENER [3, 6] | Reduction in damage by safener (difference) [4] | Reduction in damage by safener (in %) [4] | Damage to crop plant by herbicide treatment WITH SAFENER [4, 6] | Reduction in damage by safener (difference) [5] | Reduction in damage by safener (in %) [5] | Damage to crop plant by herbicide treatment WITH SAFENER [5, 6] |
| --- | --- | --- | --- | --- | --- | --- | --- | --- | --- | --- | --- | --- |
| CCOC(=O)COc1nc(-c2ccc(F)cc2F)n(-c2ccc(Br)cc2F)n1 [I.41-1] | 2 | 2 | 3 |  |  |  |  |  |  |  |  |  |
| COC(=O)CCOC(=O)COc1nc(-c2ccc(F)cc2F)n(-c2ccc(Br)cc2F)n1 [I.61-1] |  |  | 2 |  |  |  |  |  |  |  |  |  |
| O=C(COc1nc(-c2ccc(F)cc2F)n(-c2ccc(Br)cc2F)n1)OCC1CCOC1 (centres unmarked) [I.63-1] |  |  | 2 |  |  |  |  |  |  |  |  |  |
| COCCOC(=O)COc1nc(-c2ccc(F)cc2F)n(-c2ccc(Br)cc2F)n1 [I.67-1] | 2 | 3 | 3 | 20 | 100% | 0% | 50 | 100% | 0% | 45 | 82% | 10% |
